Assay results taken from patent publication EP4467141A1, “PYRAZOLO-QUINOLINES AS SELECTIVE INHIBITORS OF GENOTOXIC STRESS-INDUCED IKK/NF- KB PATHWAYS FOR CANCER THERAPY” (Max-Delbrück-Centrum für Molekulare Medizin in der …, priority 2023, dated 2024).

Key:
Experiment in all cases: Kinase panel study
Assay type in all cases: biochemical
Details in all cases: read-out: Percentage of inhibition; for inhibition at 1 µM: 1000nM; for inhibition at 10 µM: 10000nM
BRSK1 (SAD1) = molecular target: T1, BRSK1 (SAD1) (Homo sapiens, UniProt Q8TDC3)
T1 construct: purchased Thermo Fisher Scientific
T1 sequence (Q8TDC3 1-778): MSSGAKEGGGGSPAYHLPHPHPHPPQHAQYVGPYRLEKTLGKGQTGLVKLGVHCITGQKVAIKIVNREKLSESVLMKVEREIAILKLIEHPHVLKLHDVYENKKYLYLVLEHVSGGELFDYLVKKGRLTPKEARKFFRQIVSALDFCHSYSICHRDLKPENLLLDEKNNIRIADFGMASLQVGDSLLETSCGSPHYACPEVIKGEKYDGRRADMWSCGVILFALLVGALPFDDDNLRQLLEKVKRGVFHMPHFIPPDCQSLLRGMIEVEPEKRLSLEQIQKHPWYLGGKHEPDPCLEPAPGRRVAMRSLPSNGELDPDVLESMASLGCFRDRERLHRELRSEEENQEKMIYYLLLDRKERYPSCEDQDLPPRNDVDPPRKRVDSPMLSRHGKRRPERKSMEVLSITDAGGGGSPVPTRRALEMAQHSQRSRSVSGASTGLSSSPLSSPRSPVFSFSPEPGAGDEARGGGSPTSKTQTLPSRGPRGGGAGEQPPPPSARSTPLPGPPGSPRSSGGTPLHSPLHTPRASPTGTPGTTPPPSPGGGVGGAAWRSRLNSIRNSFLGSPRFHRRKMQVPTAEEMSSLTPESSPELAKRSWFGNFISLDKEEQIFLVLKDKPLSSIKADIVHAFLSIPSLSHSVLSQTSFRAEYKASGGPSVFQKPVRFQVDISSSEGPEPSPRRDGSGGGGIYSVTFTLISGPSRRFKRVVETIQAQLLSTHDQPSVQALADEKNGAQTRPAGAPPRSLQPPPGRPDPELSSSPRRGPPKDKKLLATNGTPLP
In short: (§1)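 A commercial kinase profiling service ran the assays according to its ZLyte or Adapta standard protocols. Compound was present at 10 µM or 1 µM, and kinase activity loss was expressed as percent inhibition.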

FLT4 (VEGFR3) = molecular target: T2, FLT4 (VEGFR3) (Homo sapiens, UniProt P35916)
T2 construct: purchased Thermo Fisher Scientific
In short: as §1

NTRK2 (TRKB) = molecular target: T3, NTRK2 (TRKB) (Homo sapiens, UniProt Q16620)
T3 construct: purchased Thermo Fisher Scientific
In short: as §1

EGFR (ErbB1) C797S = molecular target: T4, EGFR (ErbB1) C797S (Homo sapiens, UniProt P00533, C797S)
T4 construct: purchased Thermo Fisher Scientific
In short: as §1

AURKB (Aurora B) = molecular target: T5, AURKB (Aurora B) (Homo sapiens, UniProt Q96GD4)
T5 construct: purchased Thermo Fisher Scientific
In short: as §1

PAK2 (PAK65) = molecular target: T6, PAK2 (PAK65) (Homo sapiens, UniProt Q13177)
T6 construct: purchased Thermo Fisher Scientific
In short: as §1

EPHA1 = molecular target: T7, EPHA1 (Homo sapiens, UniProt P21709)
T7 construct: purchased Thermo Fisher Scientific
T7 sequence (P21709 26-976): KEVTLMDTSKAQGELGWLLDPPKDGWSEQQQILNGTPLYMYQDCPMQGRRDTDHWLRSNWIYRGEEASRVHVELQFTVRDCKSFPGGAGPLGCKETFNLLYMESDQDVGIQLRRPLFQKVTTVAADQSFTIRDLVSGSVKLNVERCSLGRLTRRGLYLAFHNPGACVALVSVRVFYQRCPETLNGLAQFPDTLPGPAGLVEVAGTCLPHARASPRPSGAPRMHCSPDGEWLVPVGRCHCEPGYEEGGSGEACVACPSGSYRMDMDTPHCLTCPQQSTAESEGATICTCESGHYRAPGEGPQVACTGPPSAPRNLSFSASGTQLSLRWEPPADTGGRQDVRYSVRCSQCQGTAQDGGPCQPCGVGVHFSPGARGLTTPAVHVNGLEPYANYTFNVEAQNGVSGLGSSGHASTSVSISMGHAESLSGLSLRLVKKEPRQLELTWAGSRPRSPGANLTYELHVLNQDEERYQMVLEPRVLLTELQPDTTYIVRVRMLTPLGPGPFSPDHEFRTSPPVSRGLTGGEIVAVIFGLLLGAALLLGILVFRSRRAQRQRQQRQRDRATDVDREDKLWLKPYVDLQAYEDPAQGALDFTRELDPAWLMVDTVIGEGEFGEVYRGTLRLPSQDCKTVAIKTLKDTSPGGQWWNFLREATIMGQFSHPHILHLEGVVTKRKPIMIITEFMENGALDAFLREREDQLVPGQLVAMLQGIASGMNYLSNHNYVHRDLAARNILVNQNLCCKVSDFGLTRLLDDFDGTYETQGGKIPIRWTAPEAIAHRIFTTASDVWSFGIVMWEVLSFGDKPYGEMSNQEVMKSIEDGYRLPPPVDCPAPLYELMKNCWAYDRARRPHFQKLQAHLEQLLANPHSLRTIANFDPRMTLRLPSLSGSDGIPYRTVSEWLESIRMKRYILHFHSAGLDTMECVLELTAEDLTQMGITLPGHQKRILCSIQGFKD
In short: as §1

NIM1K = molecular target: T8, NIM1K (Homo sapiens, UniProt Q8IY84)
T8 construct: purchased Thermo Fisher Scientific
In short: as §1

T4 sequence (P00533 25-1210 C797S): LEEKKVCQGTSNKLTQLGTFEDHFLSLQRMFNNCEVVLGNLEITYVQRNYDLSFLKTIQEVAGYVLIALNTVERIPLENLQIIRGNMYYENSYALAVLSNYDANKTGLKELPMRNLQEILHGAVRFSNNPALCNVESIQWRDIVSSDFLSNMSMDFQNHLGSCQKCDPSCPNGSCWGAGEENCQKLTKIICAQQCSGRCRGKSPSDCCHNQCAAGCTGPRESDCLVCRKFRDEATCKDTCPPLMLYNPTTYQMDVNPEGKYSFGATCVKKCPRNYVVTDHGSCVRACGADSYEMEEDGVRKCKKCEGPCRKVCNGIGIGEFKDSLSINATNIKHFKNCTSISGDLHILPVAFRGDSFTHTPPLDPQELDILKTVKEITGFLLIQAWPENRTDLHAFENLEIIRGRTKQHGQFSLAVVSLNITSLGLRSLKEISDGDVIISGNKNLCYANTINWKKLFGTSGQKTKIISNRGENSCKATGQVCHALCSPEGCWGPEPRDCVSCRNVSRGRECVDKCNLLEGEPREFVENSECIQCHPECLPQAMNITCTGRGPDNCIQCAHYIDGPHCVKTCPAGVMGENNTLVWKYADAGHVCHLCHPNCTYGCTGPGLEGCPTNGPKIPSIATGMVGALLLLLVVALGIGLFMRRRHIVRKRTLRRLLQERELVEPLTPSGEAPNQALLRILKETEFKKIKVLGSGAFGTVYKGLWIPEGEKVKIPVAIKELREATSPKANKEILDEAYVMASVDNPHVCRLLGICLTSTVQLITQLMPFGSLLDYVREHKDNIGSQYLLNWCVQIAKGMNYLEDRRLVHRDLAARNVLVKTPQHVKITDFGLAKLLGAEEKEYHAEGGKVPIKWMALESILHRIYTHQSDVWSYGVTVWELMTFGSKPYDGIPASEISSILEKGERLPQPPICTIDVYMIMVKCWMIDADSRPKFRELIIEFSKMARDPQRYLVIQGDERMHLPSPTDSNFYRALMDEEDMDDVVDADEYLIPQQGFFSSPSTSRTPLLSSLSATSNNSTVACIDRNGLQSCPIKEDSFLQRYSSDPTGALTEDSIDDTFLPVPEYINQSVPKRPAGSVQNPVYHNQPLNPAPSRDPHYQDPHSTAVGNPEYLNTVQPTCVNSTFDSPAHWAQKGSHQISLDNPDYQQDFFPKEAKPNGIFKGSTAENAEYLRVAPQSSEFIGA
T2 sequence (P35916 25-1363): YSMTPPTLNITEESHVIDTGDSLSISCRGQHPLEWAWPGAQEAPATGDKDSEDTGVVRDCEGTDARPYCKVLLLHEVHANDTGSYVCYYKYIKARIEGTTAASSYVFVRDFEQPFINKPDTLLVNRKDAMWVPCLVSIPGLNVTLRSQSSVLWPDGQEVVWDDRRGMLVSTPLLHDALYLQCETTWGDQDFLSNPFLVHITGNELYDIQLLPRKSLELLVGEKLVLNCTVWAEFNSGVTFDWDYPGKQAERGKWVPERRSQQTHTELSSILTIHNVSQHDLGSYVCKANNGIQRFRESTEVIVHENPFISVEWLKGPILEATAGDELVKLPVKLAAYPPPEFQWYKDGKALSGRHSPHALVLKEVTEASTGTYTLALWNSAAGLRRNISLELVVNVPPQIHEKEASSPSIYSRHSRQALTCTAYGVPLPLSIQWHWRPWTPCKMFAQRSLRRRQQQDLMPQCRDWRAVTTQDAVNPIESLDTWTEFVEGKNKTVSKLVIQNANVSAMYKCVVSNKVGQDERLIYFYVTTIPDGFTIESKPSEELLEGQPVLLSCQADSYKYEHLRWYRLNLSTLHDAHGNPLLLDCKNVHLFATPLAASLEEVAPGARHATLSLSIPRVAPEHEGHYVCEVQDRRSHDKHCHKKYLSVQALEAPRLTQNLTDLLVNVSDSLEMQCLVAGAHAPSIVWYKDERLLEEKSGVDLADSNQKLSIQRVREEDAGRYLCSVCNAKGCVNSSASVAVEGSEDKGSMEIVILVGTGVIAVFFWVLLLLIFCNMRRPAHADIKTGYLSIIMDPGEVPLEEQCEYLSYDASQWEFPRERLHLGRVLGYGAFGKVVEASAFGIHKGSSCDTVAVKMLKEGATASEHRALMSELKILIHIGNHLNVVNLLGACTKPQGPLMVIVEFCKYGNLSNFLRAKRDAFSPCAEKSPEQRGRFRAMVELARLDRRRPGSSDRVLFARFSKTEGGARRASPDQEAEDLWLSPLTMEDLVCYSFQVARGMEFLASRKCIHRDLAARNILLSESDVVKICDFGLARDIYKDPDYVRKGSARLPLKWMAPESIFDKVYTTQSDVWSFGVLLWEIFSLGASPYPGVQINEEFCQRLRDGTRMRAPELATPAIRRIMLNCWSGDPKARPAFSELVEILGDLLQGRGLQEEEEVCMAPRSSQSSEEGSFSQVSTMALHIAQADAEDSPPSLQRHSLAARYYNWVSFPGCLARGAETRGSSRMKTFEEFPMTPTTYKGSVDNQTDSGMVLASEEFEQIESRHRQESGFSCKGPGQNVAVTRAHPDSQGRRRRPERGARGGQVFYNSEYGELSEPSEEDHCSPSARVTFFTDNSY
T6 sequence (Q13177 whole entry): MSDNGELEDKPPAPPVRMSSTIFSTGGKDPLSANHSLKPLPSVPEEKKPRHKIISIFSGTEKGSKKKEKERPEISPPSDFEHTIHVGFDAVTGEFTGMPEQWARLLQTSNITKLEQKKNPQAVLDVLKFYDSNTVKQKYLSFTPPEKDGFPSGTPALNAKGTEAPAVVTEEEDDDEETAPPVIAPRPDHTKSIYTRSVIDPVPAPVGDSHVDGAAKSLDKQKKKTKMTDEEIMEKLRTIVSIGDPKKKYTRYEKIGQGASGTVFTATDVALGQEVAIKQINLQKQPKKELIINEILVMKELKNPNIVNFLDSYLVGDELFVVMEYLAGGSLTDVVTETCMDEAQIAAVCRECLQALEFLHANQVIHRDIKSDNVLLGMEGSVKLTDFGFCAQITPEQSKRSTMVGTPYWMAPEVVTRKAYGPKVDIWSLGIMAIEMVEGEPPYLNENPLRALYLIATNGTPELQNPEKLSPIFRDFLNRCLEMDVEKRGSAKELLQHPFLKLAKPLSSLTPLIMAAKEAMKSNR
T3 sequence (Q16620 32-822): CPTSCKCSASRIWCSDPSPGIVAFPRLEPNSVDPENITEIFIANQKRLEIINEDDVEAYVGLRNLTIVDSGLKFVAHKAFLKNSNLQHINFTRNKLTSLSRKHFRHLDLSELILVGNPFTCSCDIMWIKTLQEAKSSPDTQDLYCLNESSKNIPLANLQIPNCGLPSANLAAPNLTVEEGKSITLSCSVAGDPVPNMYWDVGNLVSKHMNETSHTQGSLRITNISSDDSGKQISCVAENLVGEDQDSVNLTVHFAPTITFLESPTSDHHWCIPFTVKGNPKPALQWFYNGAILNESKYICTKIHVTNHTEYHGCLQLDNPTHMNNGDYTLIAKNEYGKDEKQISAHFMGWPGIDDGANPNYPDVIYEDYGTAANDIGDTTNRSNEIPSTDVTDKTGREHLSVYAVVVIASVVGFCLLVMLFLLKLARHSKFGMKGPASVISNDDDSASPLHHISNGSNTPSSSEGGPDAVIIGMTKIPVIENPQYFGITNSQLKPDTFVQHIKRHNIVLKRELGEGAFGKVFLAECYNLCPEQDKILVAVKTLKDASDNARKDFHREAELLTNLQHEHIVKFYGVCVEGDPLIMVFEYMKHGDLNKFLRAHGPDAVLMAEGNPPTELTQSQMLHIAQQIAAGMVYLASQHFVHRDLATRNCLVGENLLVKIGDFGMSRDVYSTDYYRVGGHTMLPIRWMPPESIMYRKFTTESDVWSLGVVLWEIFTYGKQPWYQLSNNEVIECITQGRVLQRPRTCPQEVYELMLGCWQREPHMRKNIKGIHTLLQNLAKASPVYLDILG
T8 sequence (Q8IY84 whole entry): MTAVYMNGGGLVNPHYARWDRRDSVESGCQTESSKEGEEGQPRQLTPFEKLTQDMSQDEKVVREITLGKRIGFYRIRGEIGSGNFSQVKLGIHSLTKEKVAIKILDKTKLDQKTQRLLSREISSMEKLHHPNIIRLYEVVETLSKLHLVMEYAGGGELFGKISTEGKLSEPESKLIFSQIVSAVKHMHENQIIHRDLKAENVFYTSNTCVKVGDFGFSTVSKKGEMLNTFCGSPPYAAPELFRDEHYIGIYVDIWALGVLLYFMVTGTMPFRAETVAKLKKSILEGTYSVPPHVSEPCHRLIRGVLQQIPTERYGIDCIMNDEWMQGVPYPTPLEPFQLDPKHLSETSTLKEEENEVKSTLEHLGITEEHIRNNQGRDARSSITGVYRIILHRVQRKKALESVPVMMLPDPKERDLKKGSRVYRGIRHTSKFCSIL
T5 sequence (Q96GD4 whole entry): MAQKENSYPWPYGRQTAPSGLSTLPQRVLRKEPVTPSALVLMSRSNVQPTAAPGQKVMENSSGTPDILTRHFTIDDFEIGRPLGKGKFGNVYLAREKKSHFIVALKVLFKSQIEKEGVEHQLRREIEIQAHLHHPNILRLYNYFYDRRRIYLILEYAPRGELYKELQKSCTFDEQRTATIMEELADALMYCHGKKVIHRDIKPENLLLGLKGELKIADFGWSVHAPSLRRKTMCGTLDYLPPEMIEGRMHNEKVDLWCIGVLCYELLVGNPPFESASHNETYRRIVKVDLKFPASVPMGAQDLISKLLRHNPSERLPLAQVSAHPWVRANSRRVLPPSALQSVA

## COc1ccc2c(c1OC)c(=O)n1c3ccc(O)cc3c3ccnc2c31 [MW01, 5-Hydroxy-10,11-dimethoxy-9H-benzo[c]indolo[3,2,1-ij][1,5]naphthyridin-9-one]
BRSK1 (SAD1)
  inhibition at 1 µM: 0%
  inhibition at 10 µM: 6%
FLT4 (VEGFR3)
  inhibition at 1 µM: 13%
  inhibition at 10 µM: 31%
NTRK2 (TRKB)
  inhibition at 1 µM: 35%
  inhibition at 10 µM: 68%
EGFR (ErbB1) C797S
  inhibition at 1 µM: 4%
  inhibition at 10 µM: 11%
AURKB (Aurora B)
  inhibition at 1 µM: 15%
  inhibition at 10 µM: 19%
PAK2 (PAK65)
  inhibition at 1 µM: 14%
  inhibition at 10 µM: 7%
EPHA1
  inhibition at 1 µM: 9%
  inhibition at 10 µM: 16%
NIM1K
  inhibition at 1 µM: 7%
  inhibition at 10 µM: 13%

## COc1ccc2cc3c(N)nn(C(=O)c4cccc(N(C)C)c4)c3nc2c1 [MW05, (3-Amino-7-methoxypyrazolo[3,4-b]quinolin-1-yl)-[3-(dimethylamino)phenyl]methanone]
BRSK1 (SAD1)
  inhibition at 1 µM: -1%
  inhibition at 10 µM: -6%
FLT4 (VEGFR3)
  inhibition at 1 µM: 7%
  inhibition at 10 µM: -3%
NTRK2 (TRKB)
  inhibition at 1 µM: 13%
  inhibition at 10 µM: 42%
EGFR (ErbB1) C797S
  inhibition at 1 µM: 1%
  inhibition at 10 µM: -14%
AURKB (Aurora B)
  inhibition at 1 µM: 8%
  inhibition at 10 µM: -6%
PAK2 (PAK65)
  inhibition at 1 µM: 14%
  inhibition at 10 µM: 4%
EPHA1
  inhibition at 1 µM: 11%
  inhibition at 10 µM: -5%
NIM1K
  inhibition at 1 µM: 7%
  inhibition at 10 µM: 2%
